Experiments:
HEK293 = test: Indirect (secondary) cell killing assay; type: cell-based, human; settings: Table 11-3; maximum % kill
Text: To test the ability of anti-CACNG1 antibodies described herein to bind, internalize, and deliver payloads, cell binding and indirect cell killing assays were developed with primary human skeletal myoblasts (Cook Myosite Cat #SkMDC SK-1111), C2C12 mouse myoblasts (ATCC Cat #CRL-1772), and HEK293 cells engineered to express human and mouse CACNG1 (HEK293/hCACNG1 and HEK293/mCACNG1, respectively). To generate the HEK293/hCACNG1 and HEK293/mCACNG1 cell lines, FuGEGE 6 (Promega, Cat #E2691/5/3) was used to transfect HEK293HZ cells with a human CACNG1 (hCACNG1; amino acid M1-H222, Accession #NP_000718.1) or mouse CACNG1 (mCACNG1; amino acid M1-H223, Accession #NP_031608.1) expression vector. HEK293HZ is a highly transfectable subclone of HEK293 cells (1) authenticated via STIR (short tandem repeat) profiling to be 81% identical to HEK293 cells sourced from ATCC). […]
(§1) An indirect cell killing assay was used to assess the ability of anti-CACNG1 antibodies to internalize and deliver payloads into cells. In vitro cytotoxicity of the anti-CACNG1 antibodies alone or in combination with Fab anti-human Fc or Fab anti-mouse Fc secondary antibodies conjugated to Duocarmycin DM (Moradec, Cat #AH-202-DD-50 or Cat #AM-202-DD-50) were evaluated using the CellTiter-Glo 2.0 Assay Kit (Promega, Cat #G9243), in which the quantity of ATP present is used to determine the number of viable cells in culture. […]

HEK293/hCACNG1 = target: T1, HEK293/hCACNG1 (Homo sapiens, UniProt Q06432); test: Indirect (secondary) cell killing assay; type: cell-based; settings: Table 11-3; maximum % kill = 100 - minimum percent viability
T1 construct: human CACNG1 (hCACNG1); expressed in transfected cells
T1 sequence (Q06432 whole entry): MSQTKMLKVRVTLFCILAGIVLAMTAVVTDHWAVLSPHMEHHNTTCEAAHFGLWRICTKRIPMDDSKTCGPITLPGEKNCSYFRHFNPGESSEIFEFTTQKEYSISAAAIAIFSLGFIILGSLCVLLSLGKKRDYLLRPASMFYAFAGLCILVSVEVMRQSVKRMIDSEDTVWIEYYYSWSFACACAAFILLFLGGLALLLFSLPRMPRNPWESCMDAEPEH
Text: (§2) To test the ability of anti-CACNG1 antibodies described herein to bind, internalize, and deliver payloads, cell binding and indirect cell killing assays were developed with primary human skeletal myoblasts (Cook Myosite Cat #SkMDC SK-1111), C2C12 mouse myoblasts (ATCC Cat #CRL-1772), and HEK293 cells engineered to express human and mouse CACNG1 (HEK293/hCACNG1 and HEK293/mCACNG1, respectively). To generate the HEK293/hCACNG1 and HEK293/mCACNG1 cell lines, FuGEGE 6 (Promega, Cat #E2691/5/3) was used to transfect HEK293HZ cells with a human CACNG1 (hCACNG1; amino acid M1-H222, Accession #NP_000718.1) or mouse CACNG1 (mCACNG1; amino acid M1-H223, Accession #NP_031608.1) expression vector. HEK293HZ is a highly transfectable subclone of HEK293 cells (1) authenticated via STIR (short tandem repeat) profiling to be 81% identical to HEK293 cells sourced from ATCC). The HEK293HZ cell line was maintained in DMEM+10% FBS+1% L-glutamine/penicillin/streptomycin, while HEK293/hCACNG1 and HEK293/mCACNG1 cell lines were maintained in DMEM+10% FBS+1% L-glutamine/penicillin/streptomycin+500 ug/mL G418. Human skeletal myoblasts (HuSKM) were maintained in MyoTonic Basal Media (Cook Myosite Cat #MB-2222) supplemented with MyoTonic Growth Supplement (Cook Myosite Cat #MS-3333) and grown in a 37° C. incubator with 5% CO2. HuSKM were seeded in collagen-coated 96-well plates (Greiner Bio-One #655956) at 8,500 cells/well and grown for 24 hours. The growth media was changed to MyoTonic Differentiation Media (Cook Myosite Cat #MD-5555) and replaced every 2 days. Myotubes were assayed after 6 days of differentiation. C2C12 mouse myoblasts were maintained in DMEM with 10% FBS and 1% penicillin-streptomycin supplement and grown in a 37° C. incubator with 5% CO2. C2C12 cells were seeded in collagen-coated 96-well plates (Greiner Bio-One #655956) at 10,000 cells/well for the cell binding assay and 5,000 cells/well for the cell killing assay. After 24 hours, growth media was replaced with differentiation media (DMEM with 2% horse serum) and placed in a 37° C. incubator with 7.5% CO2. C2C12 myotubes were assayed after 3 days of differentiation. […]
as §1

HEK293/mCACNG1 = target: T2, HEK293/mCACNG1 (Mus musculus, UniProt O70578); test: Indirect (secondary) cell killing assay; type: cell-based; settings: Table 11-3; maximum % kill
T2 construct: mouse CACNG1 (mCACNG1); expressed in transfected cells
T2 sequence (O70578 1-223): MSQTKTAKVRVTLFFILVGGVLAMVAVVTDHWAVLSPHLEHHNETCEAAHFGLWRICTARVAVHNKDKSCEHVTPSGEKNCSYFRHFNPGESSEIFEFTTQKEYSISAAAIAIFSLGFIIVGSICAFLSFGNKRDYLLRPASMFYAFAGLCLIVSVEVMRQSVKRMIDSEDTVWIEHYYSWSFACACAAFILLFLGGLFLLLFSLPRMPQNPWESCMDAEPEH
Text: as §2, §1

mouse myotubes (C2C12) = test: Indirect (secondary) cell killing assay; type: cell-based; settings: Table 11-3; maximum % kill
Text: as §2, §1

[1] = tested on: primary human skeletal myotubes (HuSKM); test: Indirect (secondary) cell killing assay; type: cell-based; settings: Table 11-3; maximum % kill
Text: as §2, §1

Dmpk = test: In vivo siRNA durability of Dmpk knockdown; set-up: species or system mouse; settings: 1 week post treatment, 3 and 5 mg/kg siRNA; FIGS. 13A-13E
Description: All doses were adjusted for drug-to-antibody (DAR) ratio, i.e., mice were dosed based on siRNA amount for body weight, as determined by liquid chromatography electrospray ionization approaches described herein. […] Mice were sacrificed at either 1 week, 3 weeks, or 6 weeks post dosing. […] The following tissues were placed into RNAlater (ThermoFisher Catalog #AM7021): gastrocnemius, soleus, quadricep, tibialis anterior, diaphragm, heart, liver, spleen, kidney. Tissues were allowed to sit in RNAlater for at least 2 hours at room temperature before being transferred to −20° C. Total RNA was purified using MagMAX™-96 for Microarrays Total RNA Isolation Kit Catalog #AM1839 (Ambion by Life Technologies) according to manufacturer's specifications. […] Samples were then reverse transcribed using SuperScript VILO MasterMix (Invitrogen Catalog #11755-250) according to manufacturer's specifications. For TaqMan gene expression analysis, TaqMan Gene Expression MasterMix (ThermoFisher Scientific Ref #4369016) was used according to manufacturer's specifications. The probes used in the assay were as followed: Dmpk FAM (ThermoFisher Mm00446261_m1) and Rplp0 (ThermoFisher Mm01974474_gH).

## COC(=O)c1cc2c([nH]1)C(=O)C=C1N(C(=O)c3cc4cc(OC)c(OC)c(OC)c4[nH]3)C[C@H]3C[C@]123 [Duocarmycin]
HEK293
  % KILL: 99.6%
HEK293/hCACNG1
  % KILL: 99.7%
HEK293/mCACNG1
  % KILL: 99.8%
Mouse myotubes (C2C12)
  % KILL: 99.6%
[1]
  % KILL: 97.3%

## naked siRNA: siRNA against DMPK (siRNA1), SEQ ID NO: 416 sense and 417 antisense, used unconjugated as control (sense CCUCGGUAUUUAUUGUCUA; antisense UAGACAAUAAAUACCGAGG; listed as RNA, further chemistry not given here)
Dmpk
  Dmpk knockdown in skeletal muscle: no noticeable knockdown

Reference: patent US20240182561A1, “CALCIUM VOLTAGE-GATED CHANNEL AUXILIARY SUBUNIT GAMMA 1 (CACNG1) BINDING PROTEINS AND CACNG1-MEDIATED DELIVERY TO SKELETAL MUSCLE” (Regeneron Pharmaceuticals, Inc., priority 2022, published 2024)
